Measured values as given in PubChem BioAssay (NCI).
Values after ≈ are worked out from the molar mass of the structure shown.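 Values below derive from 48-hour exposures of cells grown in 96-well plates, with endpoints linearly interpolated between the two concentrations bracketing the appropriate inhibition level. GI50: concentration for 50% inhibition of growth. The concentration for full growth arrest is given as TGI.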

Legend:
Experiment in all cases: NCI anticancer screen, dose series, 48 h
OVCAR-8 ovarian = system: OVCAR-8 ovarian
HL-60(TB) leukemia = system: HL-60(TB) leukemia
UO-31 renal = system: UO-31 renal
SW-620 colon = system: SW-620 colon
SK-OV-3 ovarian = system: SK-OV-3 ovarian
OVCAR-5 ovarian = system: OVCAR-5 ovarian
MOLT-4 leukemia = system: MOLT-4 leukemia
SK-MEL-5 melanoma = system: SK-MEL-5 melanoma
SF-295 CNS = system: SF-295 CNS
ACHN renal = system: ACHN renal

**Q.** Which TGI (OVCAR-8 ovarian) does the source give for `CCP(=O)(CC)C(Cl)Cl` here?
**A.** > 100 µM

**Q.** What about the TGI (HL-60(TB) leukemia) of the same molecule?
**A.** > 100 µM

**Q.** What about the TGI (UO-31 renal) of the same molecule?
**A.** > 100 µM

**Q.** What about the TGI (SW-620 colon) of the same molecule?
**A.** > 100 µM

**Q.** What about the TGI (SK-OV-3 ovarian) of the same molecule?
**A.** > 100 µM

**Q.** And the TGI (OVCAR-5 ovarian)?
**A.** > 100 µM

**Q.** What about the TGI (MOLT-4 leukemia) of the same molecule?
**A.** > 100 µM

**Q.** What about the TGI (SK-MEL-5 melanoma) of the same molecule?
**A.** > 100 µM

**Q.** And the TGI (SF-295 CNS)?
**A.** > 100 µM

**Q.** And the TGI (ACHN renal)?
**A.** > 100 µM

**Q.** What does the source list for `CC(=O)Nc1ccc(C(=O)NN2C(=O)C(Cl)/C2=C/c2ccco2)cc1` (stereo not given)?
**A.** TGI (OVCAR-8 ovarian): > 100 µM; TGI (HL-60(TB) leukemia): > 100 µM; TGI (UO-31 renal): > 100 µM; TGI (SW-620 colon): > 100 µM; TGI (SK-OV-3 ovarian): > 100 µM; TGI (OVCAR-5 ovarian): > 100 µM; TGI (MOLT-4 leukemia): > 100 µM; TGI (SK-MEL-5 melanoma): > 100 µM; TGI (SF-295 CNS): > 100 µM; TGI (ACHN renal): > 100 µM

**Q.** With `O=C1CC2CC3OC3[C@H]3c4cc5c(cc4C(=O)N1C23)OCO5` (stereo not given in full) as the molecule, how does the TGI (OVCAR-8 ovarian) read?
**A.** > 100 µM

**Q.** What about the TGI (HL-60(TB) leukemia) of the same molecule?
**A.** > 100 µM

**Q.** And the TGI (UO-31 renal)?
**A.** > 100 µM

**Q.** And the TGI (SW-620 colon)?
**A.** > 100 µM

**Q.** And the TGI (SK-OV-3 ovarian)?
**A.** > 100 µM

**Q.** What about the TGI (OVCAR-5 ovarian) of the same molecule?
**A.** > 100 µM

**Q.** And the TGI (MOLT-4 leukemia)?
**A.** > 100 µM

**Q.** What about the TGI (SF-295 CNS) of the same molecule?
**A.** > 100 µM

**Q.** What about the TGI (ACHN renal) of the same molecule?
**A.** > 100 µM

**Q.** Which results are given for `COc1cc(C(C)O)c(S(=O)(=O)CC(C)O)nn1` (stereo not given)?
**A.** TGI (OVCAR-8 ovarian): > 100 µM; TGI (HL-60(TB) leukemia): > 100 µM; TGI (UO-31 renal): > 100 µM; TGI (SW-620 colon): > 100 µM; TGI (SK-OV-3 ovarian): > 100 µM; TGI (OVCAR-5 ovarian): > 100 µM; TGI (MOLT-4 leukemia): > 100 µM; TGI (SK-MEL-5 melanoma): > 100 µM; TGI (SF-295 CNS): > 100 µM; TGI (ACHN renal): > 100 µM

**Q.** Which GI50 (OVCAR-8 ovarian) does the source give for `CC(=O)c1c(C)nc(SSc2nc(C)c(C(C)=O)c(-c3ccc(Cl)cc3)c2C#N)c(C#N)c1-c1ccc(Cl)cc1` here?
**A.** 79.2 µg/mL (≈ 131 µM)

**Q.** And the TGI (OVCAR-8 ovarian)?
**A.** > 150 µg/mL

**Q.** What about the GI50 (HL-60(TB) leukemia) of the same molecule?
**A.** > 150 µg/mL

**Q.** And the TGI (HL-60(TB) leukemia)?
**A.** > 150 µg/mL

**Q.** And the GI50 (UO-31 renal)?
**A.** 82 µg/mL (≈ 136 µM)

**Q.** And the TGI (UO-31 renal)?
**A.** > 150 µg/mL

**Q.** And the GI50 (SW-620 colon)?
**A.** 69.4 µg/mL (≈ 115 µM)

**Q.** And the TGI (SW-620 colon)?
**A.** > 150 µg/mL

**Q.** What about the GI50 (SK-OV-3 ovarian) of the same molecule?
**A.** 29.3 µg/mL (≈ 48.6 µM)

**Q.** And the TGI (SK-OV-3 ovarian)?
**A.** > 150 µg/mL

**Q.** What about the GI50 (OVCAR-5 ovarian) of the same molecule?
**A.** > 150 µg/mL

**Q.** And the TGI (OVCAR-5 ovarian)?
**A.** > 150 µg/mL

**Q.** What about the GI50 (MOLT-4 leukemia) of the same molecule?
**A.** 134 µg/mL

**Q.** And the TGI (MOLT-4 leukemia)?
**A.** > 150 µg/mL

**Q.** And the GI50 (SK-MEL-5 melanoma)?
**A.** 61.7 µg/mL (≈ 102 µM)

**Q.** What about the TGI (SK-MEL-5 melanoma) of the same molecule?
**A.** > 150 µg/mL

**Q.** And the GI50 (SF-295 CNS)?
**A.** 50.2 µg/mL (≈ 83.1 µM)

**Q.** And the TGI (SF-295 CNS)?
**A.** > 150 µg/mL

**Q.** What about the GI50 (ACHN renal) of the same molecule?
**A.** 76.9 µg/mL (≈ 127 µM)

**Q.** And the TGI (ACHN renal)?
**A.** > 150 µg/mL

**Q.** Which results are given for `O=C(N/N=C/c1cc(Cl)cc(Cl)c1[O-])c1ccccc1O.O=C(N/N=C/c1cc(Cl)cc(Cl)c1[O-])c1ccccc1O.[Co+2]`?
**A.** TGI (OVCAR-8 ovarian): 11.6 µM; TGI (HL-60(TB) leukemia): 0.634 µM; TGI (UO-31 renal): 6.72 µM; TGI (SW-620 colon): 16.8 µM; TGI (SK-OV-3 ovarian): 6.45 µM; TGI (OVCAR-5 ovarian): 6.27 µM; GI50 (MOLT-4 leukemia): 0.23 µM; TGI (MOLT-4 leukemia): 15.7 µM; TGI (SK-MEL-5 melanoma): 2.53 µM; TGI (SF-295 CNS): 12.9 µM; TGI (ACHN renal): 10.7 µM
